Like-named read-outs stand apart in the source and are kept apart here.
Assays:
NF-κB = NF-κB luciferase assay, TNFα-induced, NIH-3T3-KBF-Luc cells
CB2R = CB2R (Homo sapiens, UniProt P34972); assay: CB2R agonism assay, HEK293T-CB2 cells with CRE-Luc reporter, forskolin-stimulated; settings: for Conclusions: Is CB2R agonist effect observed? / Experiment 1 % of activity / Experiment 2 % of activity / Experiment 3 % of activity: THC 10 μM or THCA 10 μM alone; for Experiment 1 % of activity / Experiment 2 % of activity / Experiment 3 % of activity: forskolin = 100%
CB1R [1] = target: T1, CB1R (Homo sapiens, UniProt P21554); assay: cell-based
T1 construct: expressed in transfected cells; host or cells: HEK293T (HEK293T-CB1), transiently co-transfected with CRE-luc reporter

COX-2 = target: T2, COX-2 (Homo sapiens, UniProt P35354); settings: Takeda et al 2008; cited from earlier work
T2 sequence (P35354 18-604): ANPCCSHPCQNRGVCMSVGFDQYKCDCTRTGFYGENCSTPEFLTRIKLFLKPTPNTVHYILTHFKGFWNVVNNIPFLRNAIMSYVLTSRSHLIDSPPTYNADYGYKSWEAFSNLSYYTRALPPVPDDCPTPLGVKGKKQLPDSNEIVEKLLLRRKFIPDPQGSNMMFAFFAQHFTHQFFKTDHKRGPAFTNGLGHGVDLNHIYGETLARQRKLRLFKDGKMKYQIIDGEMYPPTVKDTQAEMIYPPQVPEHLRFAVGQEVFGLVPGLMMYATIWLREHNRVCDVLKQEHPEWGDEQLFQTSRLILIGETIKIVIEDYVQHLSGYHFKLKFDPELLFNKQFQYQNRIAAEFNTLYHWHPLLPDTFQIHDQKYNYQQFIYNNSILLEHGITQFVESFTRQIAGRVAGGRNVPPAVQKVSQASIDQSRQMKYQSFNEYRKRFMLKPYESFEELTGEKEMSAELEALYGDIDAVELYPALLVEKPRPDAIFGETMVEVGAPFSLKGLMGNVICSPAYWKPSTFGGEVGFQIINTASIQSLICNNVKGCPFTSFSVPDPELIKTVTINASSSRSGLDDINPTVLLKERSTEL

CB1R [2] = target: T1, CB1R; format: cell-based
[3] = THC 10 μM or CBD 10 μM alone, TNFα = 100%
[4] = read-out: Experiment 1 % of activity
[5] = read-out: Experiment 2 % of activity
[6] = read-out: Experiment 3 % of activity
[7] = TNFα 30 ng/mL (control without inhibitor)
[8] = THCA 10 μM or THC 10 μM alone, CP55940 = 100%

Sequence of CB2R (P34972 whole entry): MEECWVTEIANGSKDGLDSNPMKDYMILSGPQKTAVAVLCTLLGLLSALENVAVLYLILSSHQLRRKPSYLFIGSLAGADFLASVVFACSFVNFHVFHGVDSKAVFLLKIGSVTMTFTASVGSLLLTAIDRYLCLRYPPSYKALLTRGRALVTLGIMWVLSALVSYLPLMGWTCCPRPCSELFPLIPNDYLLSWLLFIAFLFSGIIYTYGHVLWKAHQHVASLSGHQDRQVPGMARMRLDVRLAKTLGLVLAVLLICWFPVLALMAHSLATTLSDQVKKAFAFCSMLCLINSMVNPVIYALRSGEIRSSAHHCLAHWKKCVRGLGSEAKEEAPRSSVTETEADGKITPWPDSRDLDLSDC
T1 sequence (P21554 whole entry): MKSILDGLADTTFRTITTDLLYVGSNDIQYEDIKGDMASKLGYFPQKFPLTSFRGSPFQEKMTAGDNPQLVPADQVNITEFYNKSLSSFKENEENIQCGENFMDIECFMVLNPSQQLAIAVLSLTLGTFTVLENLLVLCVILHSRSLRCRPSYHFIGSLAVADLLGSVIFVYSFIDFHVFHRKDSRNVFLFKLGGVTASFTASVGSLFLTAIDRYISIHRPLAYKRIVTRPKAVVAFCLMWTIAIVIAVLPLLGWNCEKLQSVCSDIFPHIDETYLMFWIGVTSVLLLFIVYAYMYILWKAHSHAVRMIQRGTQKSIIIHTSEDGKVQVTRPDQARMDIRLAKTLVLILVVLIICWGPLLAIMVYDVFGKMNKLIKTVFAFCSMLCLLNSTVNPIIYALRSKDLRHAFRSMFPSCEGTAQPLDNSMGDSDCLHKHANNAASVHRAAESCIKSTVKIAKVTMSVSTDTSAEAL

CCCCCc1cc(O)c2c(c1)OC(C)(C)[C@@H]1CCC(C)=C[C@@H]21 [THC, tetrahydrocannabinol]
Conclusions: Is NF-κB inhibitor effect observed? (NF-κB; THC 10 μM or CBD 10 μM alone): Negative
Experiment 1 % of activity (NF-κB; [3]): 122.2%
Experiment 2 % of activity (NF-κB; [3]): 84.9%
Experiment 3 % of activity (NF-κB; [3]): 88.8%
Conclusions: Is CB2R agonist effect observed? (CB2R): Negative
Experiment 1 % of activity (CB2R): 54.7%
Experiment 2 % of activity (CB2R): 73.7%
Experiment 3 % of activity (CB2R): 60.3%

C=C[C@@]1(C)CC(=O)[C@]2(O)[C@@]3(C)[C@@H](O)CCC(C)(C)[C@@H]3[C@H](O)[C@H](OC(C)=O)[C@@]2(C)O1 [Forskolin]
activity at 1 µM (CB2R; [4]): 100%
activity at 1 µM (CB2R; [5]): 100%
activity at 1 µM (CB2R; [6]): 100%

C=C(C)[C@@H]1CCC(C)=C[C@H]1c1c(O)cc(CCCCC)cc1O [CBD, cannabidiol]
Conclusions: Is CB1R antagonist effect observed? (CB1R [1]; CBD 1 μM alone): Negative
activity at 1 µM (CB1R [1]; CBD 1 μM alone, CP55940 = 100%, read-out: Experiment 1 % of activity): 61.3%
activity at 1 µM (CB1R [1]; CBD 1 μM alone, CP55940 = 100%, read-out: Experiment 2 % of activity): 55.9%
activity at 1 µM (CB1R [1]; CBD 1 μM alone, CP55940 = 100%, read-out: Experiment 3 % of activity): 57.4%
Conclusions: Is NF-κB inhibitor effect observed? (NF-κB; THC 10 μM or CBD 10 μM alone): Negative
activity at 10 µM (NF-κB; [4]): 136%
activity at 10 µM (NF-κB; [5]): 86.4%
activity at 10 µM (NF-κB; [6]): 106%

C=C(C)[C@@H]1CCC(C)=C[C@H]1c1c(O)cc(CCCCC)c(C(=O)O)c1O [CBDA, cannabidiolic acid]
selectivity for COX-2 than COX-1 inhibition (COX-2): 9 fold

TNFα
Conclusions: Is NF-κB inhibitor effect observed? (NF-κB; [7]): Negative
Experiment 1 % of activity (NF-κB; [7]): 100.0%
Experiment 2 % of activity (NF-κB; [7]): 100.0%
Experiment 3 % of activity (NF-κB; [7]): 100.0%

CCCCCc1cc2c(c(O)c1C(=O)O)[C@@H]1C=C(C)CC[C@H]1C(C)(C)O2 [THCA, tetrahydrocannabinolic acid]
Conclusions: Is CB1R antagonist effect observed? (CB1R [1]; THCA 10 μM or THC 10 μM alone): Negative
Experiment 1 % of activity (CB1R [1]; [8]): 116.7%
Experiment 2 % of activity (CB1R [1]; [8]): 116.0%
Experiment 3 % of activity (CB1R [1]; [8]): 56.4%
Conclusions: Is CB1R agonist effect observed? (CB1R [2]; THCA 10 μM or THC 10 μM alone): Negative
Experiment 1 Fold change (CB1R [2]; THCA 10 μM or THC 10 μM alone): 0.9 fold
Experiment 2 Fold change (CB1R [2]; THCA 10 μM or THC 10 μM alone): 0.8 fold
Experiment 3 Fold change (CB1R [2]; THCA 10 μM or THC 10 μM alone): 1.1 fold
Conclusions: Is CB2R agonist effect observed? (CB2R): Negative
Experiment 1 % of activity (CB2R): 115.6%
Experiment 2 % of activity (CB2R): 105.6%
Experiment 3 % of activity (CB2R): 124.6%

CCCCCCC(C)(C)c1ccc([C@@H]2C[C@H](O)CC[C@H]2CCCO)c(O)c1 [CP]
Conclusions: Is CB1R antagonist effect observed? (CB1R [1]): Negative
activity at 5 µM (CB1R [1]; [4]): 100%
activity at 5 µM (CB1R [1]; [5]): 100%
activity at 5 µM (CB1R [1]; [6]): 100%
Conclusions: Is CB1R agonist effect observed? (CB1R [2]): + (key: +: positive result (CB1R activity ≥2.5-fold increase) are considered agonists of CB1R activity)
Experiment 1 Fold change (CB1R [2]): 2.5 fold
Experiment 2 Fold change (CB1R [2]): 2.5 fold
Experiment 3 Fold change (CB1R [2]): 2.5 fold

COc1cc(/C=C/C(=O)CC(=O)/C=C/c2ccc(O)c(OC)c2)ccc1O [Curcumin, diferuloylmethane (curcumin)]
Conclusions: Is NF-κB inhibitor effect observed? (NF-κB; Curcumin 5 μM, alone or + THC 10 μM or + CBD 10 μM): + (positive result (activity ≤50%) are considered inhibitory of NF-κB activity)
Conclusions: Is NF-κB inhibitor effect observed? (NF-κB; Curcumin 10 μM, alone or + THC 10 μM or + CBD 10 μM): + (positive result (activity ≤50%) are considered inhibitory of NF-κB activity)
Conclusions: Is NF-κB inhibitor effect observed? (NF-κB; Curcumin 15 μM, alone or + THC 10 μM or + CBD 10 μM): + (positive result (activity ≤50%) are considered inhibitory of NF-κB activity)
IC50 (NF-κB; read-out: anti-NF-κB IC50): 3.91 µM
EC50 (CB2R): 5970 µM

From US20210236575A1 (priority 2018, published 2021)
